Tests used:
[1] = tested on: HCV; assay: HCV production after treatment of HCV-infected cells with commercial inhibitors of lipoprotein assembly and secretion, RPA; type: cell-based, Hepatitis C virus; details: increasing concentrations; positive-strand HCV RNA by RPA, 3 days p.i.
Method: These inhibitors were used to treat HCV-infected cells. The culture supernatants were then used to infect naïve Huh7.5 cells. At 3 days p.i., the levels of positive-strand HCV RNA were determined by RPA.

[2] = tested on: apoB and triglyceride secretion; details: HepG2 cells; cited from earlier work
[3] = tested on: HCV; assay: HCV production: infectivity of media of CP-346086-treated, HCV-infected Huh7.5 cells on naive Huh7.5 cells; type: cell-based, Hepatitis C virus
Method: (§1) With reference to FIGS. 14A-14F, studies were carried out to determine the effects of an MTP inhibitor, CP-346086, on lipoprotein production/secretion and HCV production. […] To determine the effect of CP-346086 on HCV production, Huh7.5 cells were infected with HCV at 37° C. for 2 hr and then incubated with varying concentrations of CP-346086 for 4 days. The levels of apoB and apoE in the media were determined by Western blotting. […] The levels of HCV virions released into the media were initially determined by infectivity assay in cell culture. The naïve Huh7.5 cells were infected with HCV-containing media. At 3 days p.i., the levels of HCV NS3 protein and positive-stranded RNA were quantified by Western blotting and RPA, respectively. […] Similarly, CP-346086 lowered the infectious HCV titers by 1, 2, 3, and 4 orders of magnitude (10, 100, 1,000, and 10,000 times) at concentrations of 6.25, 12.5, 25, and 50 μM, respectively, as illustrated in FIG. 14E.

[4] = tested on: apoE; assay: apoE in media of HCV-infected Huh7.5 cells treated with inhibitor, Western blotting; type: cell-based; details: 4 days
Method: as §1

[5] = tested on: subgenomic HCV replicon of genotype 2a; assay: HCV RNA replication in Huh7.5 cells harboring a subgenomic HCV replicon of genotype 2a; type: cell-based, Hepatitis C virus; details: subgenomic replicon genotype 2a, RPA
[6] = tested on: apoB; assay: apoB in media of HCV-infected Huh7.5 cells treated with inhibitor, Western blotting; type: cell-based; details: 1 μM; 4 days
Method: as §1

[7] = tested on: HCV; assay: HCV infection of Huh7.5 cells in the presence of apoE3 or apoC-I protein; type: cell-based, Hepatitis C virus; details: increasing concentrations (μg/ml); RPA
Method: With reference to FIGS. 16A and 16B, the effect of recombinant apolipoprotein E3 (apoE3) and purified apoC-I on HCV infection was investigated. Huh7.5 cells were infected with HCV in the presence of increasing concentrations (μg/ml) of apoE3 or apoC-I, as indicated on the top of the figures. At 3-hr p.i., the HCV-infected cells were washed with 1×PBS twice and were incubated with medium for 3 days. With reference to FIG. 16A, the levels of HCV NS3 protein in the cells infected with HCV in the presence of apoE3 were then determined by Western blot analysis using an NS3-specific monoclonal antibody and a cellular beta-actin protein as an internal control. With reference to FIG. 16B, HCV positive-strand RNA in the cells infected with HCV in the presence of apoC-I were quantified by RPA.

Question: For `O=c1c(O)c(-c2ccc(O)c(O)c2)oc2cc(O)cc(O)c12` [quercetin], which “levels of HCV virion production” value [1] is on record?
Answer: Its value is “significantly decreased”.

Question: For `O=C(Nc1ccc2c(c1)CCN(Cc1ncn[nH]1)C2)c1ccccc1-c1ccc(C(F)(F)F)cc1` [CP-346086], which IC50 [2] is on record?
Answer: Its IC50 is 2.6 nM.

Question: What about the “lowering of infectious HCV titers” value ([3]; 6.25 μM) of the same compound?
Answer: Its value is 10 times.

Question: And the “lowering of infectious HCV titers” value ([3]; 12.5 μM)?
Answer: The value was 100 times.

Question: And the “lowering of infectious HCV titers” value ([3]; 25 μM)?
Answer: The value was 1,000 times.

Question: And the “lowering of infectious HCV titers” value ([3]; 50 μM)?
Answer: Its value is 10,000 times.

Question: What about the “reduction of HCV positive-stranded RNA level” value ([3]; 50 μM, 3 days p.i., RPA) of the same compound?
Answer: Its value is > 95%.

Question: And the “reduction of HCV NS3 protein level” value ([3]; 50 μM, 3 days p.i., Western blotting)?
Answer: The value was > 95%.

Question: What about the “concentration up to which apoE secretion was not reduced” value [4] of the same compound?
Answer: Its value is “above 3 μM”.

Question: And the “HCV RNA replication” value [5]?
Answer: Its value is “no significant effect”.

Question: And the apoB secretion [6]?
Answer: The apoB secretion was “almost completely blocked”.

Question: With `COc1ccc([C@@H]2CC(=O)c3c(O)cc(O)cc3O2)cc1O` [hesperetin] as the compound, how does the “levels of HCV virion production” value [1] read?
Answer: Its value is “significantly decreased”.

Question: Which “inhibition of HCV infection (HCV positive-strand RNA)” value [7] does the source give for “ApoC-I: purified apoC-I protein (TPDVSSALDKLKEFGNTLEDKARELISRIKQSELSAKMREWFSETFQKVKEKLKIDS; UniProt P02654 27-83, looked up)” here?
Answer: The value was “inhibited HCV infection in a dose-dependent manner”.

Question: For `COc1ccc(Cl)cc1C(=O)NCCc1ccc(S(=O)(=O)NC(=O)NC2CCCCC2)cc1` [glybenclamide], which “levels of HCV virion production” value [1] is on record?
Answer: Its value is “significantly decreased”.

— US20100310553A1, “Compositions and Methods for Controlling Hepatitis C Virus Infection” (priority 2006, published 2010)
